Source: patent publication US4551450A, “Rifamycin hydrazones, pharmaceutical compositions containing them and their use” (Ciba-Geigy Corporation, priority 1984, dated 1985)
Converted amounts (≈) assume the structure as drawn. Where two headings read alike, the source gives them in different places.

Key:
Pharmacokinetics in mice = assay type: in vivo; details: for half-life / Cmax: mouse; for half-life: read-out: t/2 (half-life period of excretion) (converted); for Cmax / Cmax (highest concentration of the active ingredient in the blood plasma): blood plasma; for Cmax: read-out: Cmax (highest concentration of the active ingredient in the blood plasma)
Excerpt: (§1) (5) Half-life period of excretion (in hours).
(§2) (6) Highest concentration of the active ingredient in the blood plasma.

[1] = system: Mycobacterium tuberculosis TB H3 Rv; test: Antituberculotic action, in vivo test (mice), administration p.o.; parameters: species or system Mycobacterium tuberculosis; mice; details: for ED50: Mycobacterium tuberculosis, TBH3RV, po
Excerpt: (§3) (2) Test organism: Mycobacterium tuberculosis TB H3 Rv
(4) In vivo test (mice); administration p.o.

[2] = system: Mycobacterium tuberculosis TB H3 Rv; test: Antituberculotic action, minimum inhibitory concentration in a plate test in vitro; assay type: cell-based; details: M. tuberculosis TB H3 Rv; for Antituberculotic action, MIC (minimum inhibitory concentration): plate test in vitro; for MIC: Mycobacterium tuberculosis, TBH3RV, read-out: Antituberculotic action, MIC (minimum inhibitory concentration), plate test in vitro
Excerpt: as §3
(3) Minimum inhibitory concentration in a plate test in vitro.

Pharmacokinetics in rats = assay type: in vivo; details: for half-life / Cmax: rat; for half-life: in vivo, read-out: t/2 (half-life period of excretion) (converted); for Cmax / Cmax (highest concentration of the active ingredient in the blood plasma): blood plasma; for Cmax: read-out: Cmax (highest concentration of the active ingredient in the blood plasma)
Excerpt: as §1, §2

[3] = prior art statement, in some cases; cited from earlier work
tuberculosis infections = details: prior art, U.S. Pat. No. 3,342,810; cited from earlier work
[4] = in vivo, mice, p.o., read-out: Antituberculotic action, ED50

Compound: CCC1CCC2CN(N=Cc3c4c(O)c5c(O)c(C)c6c(c5c3O)C(=O)[C@@](C)(O/C=C/[C@H](OC)[C@@H](C)[C@@H](OC(C)=O)[C@H](C)[C@H](O)[C@H](C)[C@@H](O)[C@@H](C)/C=C/C=C(/C)C(=O)N4)O6)CCN2C1 (single isomer, unassigned) [Example 4 Isomer A, hydrazone of 3-formylrifamycin SV with 3-amino-7-ethylperhydro-1H-pyrido[1,2-a]pyrazine]
- half-life (Pharmacokinetics in mice; in vivo): 55.1 h
- Cmax (Pharmacokinetics in mice; plasma): 29500 ng/mL
- ED50 [1, 4]: 0.8 mg/kg
- Antituberculotic action, MIC (minimum inhibitory concentration) ([2]; listed as 4 Isomer A): 0.01 µg/mL

Compound: CCC1CCC2CN(N=Cc3c4c(O)c5c(O)c(C)c6c(c5c3O)C(=O)[C@@](C)(O/C=C/[C@H](OC)[C@@H](C)[C@@H](OC(C)=O)[C@H](C)[C@H](O)[C@H](C)[C@@H](O)[C@@H](C)/C=C/C=C(/C)C(=O)N4)O6)CCN2C1 (single isomer, unassigned) [Example 4 Isomer B, hydrazone of 3-formylrifamycin SV with 3-amino-7-ethylperhydro-1H-pyrido[1,2-a]pyrazine]
- t/2 (half-life period of excretion) (Pharmacokinetics in mice): 44.6 h
- Cmax (highest concentration of the active ingredient in the blood plasma) (Pharmacokinetics in mice): 26400 ng/mL
- Antituberculotic action, ED50 ([1]; in vivo, mice, p.o.): 1 mg/kg
- Antituberculotic action, MIC (minimum inhibitory concentration) ([2]; listed as 4 Isomer B): 0.03 µg/mL

Compound: COC1C=COC2(C)Oc3c(C)c(O)c4c(O)c(c(C=NN5CC6CCCCN6CC5C)c(O)c4c3C2=O)NC(=O)C(C)=CC=CC(C)C(O)C(C)C(O)C(C)C(OC(C)=O)C1C (single isomer, unassigned) [Example 5 Isomer A, hydrazone of 3-formylrifamycin SV with 3-amino-2-methylperhydro-1H-pyrido[1,2-a]pyrazine]
- half-life (Pharmacokinetics in rats): 58.5 h
- Cmax (Pharmacokinetics in rats; plasma): 19700 ng/mL
- Cmax (highest concentration of the active ingredient in the blood plasma) (Pharmacokinetics in mice; listed as 5 Isomer A): 15000 ng/mL
- t/2 (half-life period of excretion) (Pharmacokinetics in mice; listed as 5 Isomer A): 69.3 h
- ED50 [1, 4]: 3 mg/kg
- Antituberculotic action, MIC (minimum inhibitory concentration) ([2]; listed as 5 Isomer A): 0.2 µg/mL

Compound: COC1C=COC2(C)Oc3c(C)c(O)c4c(O)c(c(C=NN5CC6CCCCN6CC5C)c(O)c4c3C2=O)NC(=O)C(C)=CC=CC(C)C(O)C(C)C(O)C(C)C(OC(C)=O)C1C (single isomer, unassigned) [Example 5 Isomer B, hydrazone of 3-formylrifamycin SV with 3-amino-2-methylperhydro-1H-pyrido[1,2-a]pyrazine]
- t/2 (half-life period of excretion) (Pharmacokinetics in rats): 44.7 h
- Cmax (highest concentration of the active ingredient in the blood plasma) (Pharmacokinetics in rats): 16400 ng/mL
- Cmax (highest concentration of the active ingredient in the blood plasma) (Pharmacokinetics in mice; listed as 5 Isomer B): 38800 ng/mL
- t/2 (half-life period of excretion) (Pharmacokinetics in mice; listed as 5 Isomer B): 66 h
- Antituberculotic action, ED50 ([1]; in vivo, mice, p.o., listed as 5 Isomer B): 2 mg/kg
- Antituberculotic action, MIC (minimum inhibitory concentration) ([2]; listed as 5 Isomer B): 0.4 µg/mL

Compound: COC1C=COC2(C)Oc3c(C)c(O)c4c(O)c(c(C=NN5CC6CCCCN6CC5C)c(O)c4c3C2=O)NC(=O)C(C)=CC=CC(C)C(O)C(C)C(O)C(C)C(OC(C)=O)C1C (single isomer, unassigned) [Example 5 Isomer C, hydrazone of 3-formylrifamycin SV with 3-amino-2-methylperhydro-1H-pyrido[1,2-a]pyrazine]
- Cmax (highest concentration of the active ingredient in the blood plasma) (Pharmacokinetics in mice; listed as 5 Isomer C): 23700 ng/mL
- t/2 (half-life period of excretion) (Pharmacokinetics in mice; listed as 5 Isomer C): 15 h
- Antituberculotic action, ED50 ([1]; in vivo, mice, p.o., listed as 5 Isomer C): 3 mg/kg
- Antituberculotic action, MIC (minimum inhibitory concentration) ([2]; listed as 5 Isomer C): 0.06 µg/mL

Compound: COC1C=COC2(C)Oc3c(C)c(O)c4c(O)c(c(C=NN5CC6CCCCN6CC5C)c(O)c4c3C2=O)NC(=O)C(C)=CC=CC(C)C(O)C(C)C(O)C(C)C(OC(C)=O)C1C (single isomer, unassigned) [Example 5 Isomer D, hydrazone of 3-formylrifamycin SV with 3-amino-2-methylperhydro-1H-pyrido[1,2-a]pyrazine]
- Cmax (highest concentration of the active ingredient in the blood plasma) (Pharmacokinetics in mice; listed as 5 Isomer D): 33600 ng/mL
- t/2 (half-life period of excretion) (Pharmacokinetics in mice; listed as 5 Isomer D): 25.1 h
- Antituberculotic action, ED50 ([1]; in vivo, mice, p.o., listed as 5 Isomer D): 3 mg/kg
- Antituberculotic action, MIC (minimum inhibitory concentration) ([2]; listed as 5 Isomer D): 0.06 µg/mL

Compound: CO[C@H]1/C=C/O[C@@]2(C)Oc3c(C)c(O)c4c(O)c(c(C=NN5CCN6C(CCC7CCCCC76)C5)c(O)c4c3C2=O)NC(=O)/C(C)=C\C=C\[C@H](C)[C@H](O)[C@@H](C)[C@@H](O)[C@@H](C)[C@H](OC(C)=O)[C@@H]1C (single isomer, unassigned) [Example 6 Isomer A, hydrazone of 3-formylrifamycin SV with 3-aminoperhydro-1H-pyrazino[1,2-a]quinoline]
- Cmax (Pharmacokinetics in mice; in vivo): 56300 ng/mL
- half-life (Pharmacokinetics in mice; in vivo): 33.4 h
- Antituberculotic action, MIC (minimum inhibitory concentration) ([2]; listed as 6 Isomer A): 0.03 µg/mL

Compound: CO[C@H]1/C=C/O[C@@]2(C)Oc3c(C)c(O)c4c(O)c(c(C=NN5CCN6C(CCC7CCCCC76)C5)c(O)c4c3C2=O)NC(=O)/C(C)=C\C=C\[C@H](C)[C@H](O)[C@@H](C)[C@@H](O)[C@@H](C)[C@H](OC(C)=O)[C@@H]1C (single isomer, unassigned) [Example 6 Isomer B, hydrazone of 3-formylrifamycin SV with 3-aminoperhydro-1H-pyrazino[1,2-a]quinoline]
- t/2 (half-life period of excretion) (Pharmacokinetics in mice): 40.9 h
- Cmax (highest concentration of the active ingredient in the blood plasma) (Pharmacokinetics in mice): 34000 ng/mL
- Antituberculotic action, MIC (minimum inhibitory concentration) ([2]; listed as 6 Isomer B): 0.007 µg/mL

Compound: COC1C=COC2(C)Oc3c(C)c(O)c4c(O)c(c(C=NN5CCN6CCCCC6C5)c(O)c4c3C2=O)NC(=O)C(C)=CC=CC(C)C(O)C(C)C(O)C(C)C(OC(C)=O)C1C (centres unmarked) [Example 1]
- t/2 (half-life period of excretion) (Pharmacokinetics in rats): 17.0 h
- Cmax (highest concentration of the active ingredient in the blood plasma) (Pharmacokinetics in rats): 24500 ng/mL
- t/2 (half-life period of excretion) (Pharmacokinetics in mice): 20 h
- Cmax (highest concentration of the active ingredient in the blood plasma) (Pharmacokinetics in mice): 27300 ng/mL
- Antituberculotic action, ED50 ([1]; in vivo, mice, p.o.): 0.8 mg/kg
- Antituberculotic action, MIC (minimum inhibitory concentration) [2]: 0.03 µg/mL

Compound: CO[C@H]1/C=C/O[C@@]2(C)Oc3c(C)c(O)c4c(O)c(c(C=NN5CCN6CCCC6C5)c(O)c4c3C2=O)NC(=O)/C(C)=C\C=C\[C@H](C)[C@H](O)[C@@H](C)[C@@H](O)[C@@H](C)[C@H](OC(C)=O)[C@@H]1C (some centres unmarked) [Example 2, hydrazone of 3-formylrifamycin SV with 3-aminoperhydropyrrolo[1,2-a]pyrazine]
- half-life (Pharmacokinetics in rats): 13.2 h
- Cmax (Pharmacokinetics in rats; plasma): 11600 ng/mL
- half-life (Pharmacokinetics in mice; in vivo): 9.1 h
- Cmax (Pharmacokinetics in mice; plasma): 57700 ng/mL
- ED50 [1, 4]: 2.5 mg/kg
- MIC [2]: 0.1 µg/mL (≈ 0.118 µM)

Compound: CO[C@H]1/C=C/O[C@@]2(C)Oc3c(C)c(O)c4c(O)c(c(C=NN5CCN6C(C)CCCC6C5)c(O)c4c3C2=O)NC(=O)/C(C)=C\C=C\[C@H](C)[C@H](O)[C@@H](C)[C@@H](O)[C@@H](C)[C@H](OC(C)=O)[C@@H]1C (some centres unmarked) [Example 3, hydrazone of 3-formylrifamycin SV with 3-amino-8-methylperhydro-1H-pyrido[1,2-a]pyrazine]
- half-life (Pharmacokinetics in mice; in vivo): 14 h
- Cmax (Pharmacokinetics in mice; plasma): 22600 ng/mL
- ED50 ([1]; read-out: Antituberculotic action, ED50, in vivo, mice, p.o.): 1 mg/kg
- MIC [2]: 0.4 µg/mL (≈ 0.456 µM)

Compound: CO[C@H]1/C=C/O[C@@]2(C)Oc3c(C)c(O)c4c(O)c(c(C=NN5CCN6c7ccccc7CCC6C5)c(O)c4c3C2=O)NC(=O)/C(C)=C\C=C\[C@H](C)[C@H](O)[C@@H](C)[C@@H](O)[C@@H](C)[C@H](OC(C)=O)[C@@H]1C (some centres unmarked) [Example 7, hydrazone of 3-formylrifamycin SV with 3-amino-2,3,4,4a,5,6-hexahydro-1H-pyrazino[1,2-a]quinoline]
- half-life (Pharmacokinetics in mice; in vivo): 32.2 h
- Cmax (Pharmacokinetics in mice; plasma): 24000 ng/mL
- ED50 [1, 4]: 4.5 mg/kg
- MIC [2]: 0.06 µg/mL (≈ 0.0659 µM)

Compound: CO[C@H]1/C=C/O[C@@]2(C)Oc3c(C)c(O)c4c(O)c(c(C=NN5CCN6CCSCC6C5)c(O)c4c3C2=O)NC(=O)/C(C)=C\C=C\[C@H](C)[C@H](O)[C@@H](C)[C@@H](O)[C@@H](C)[C@H](OC(C)=O)[C@@H]1C (some centres unmarked) [Example 8, hydrazone of 3-formylrifamycin SV with 6-aminoperhydropyrazolo[2,1-c]-p-thiazine]
- half-life (Pharmacokinetics in mice; in vivo): 8.9 h
- Cmax (Pharmacokinetics in mice; plasma): 72000 ng/mL
- ED50 [1, 4]: 8 mg/kg
- MIC [2]: 0.2 µg/mL (≈ 0.227 µM)

Compound: COC1C=COC2(C)Oc3c(C)c(O)c4c(O)c(c(C=NN5CCN6CCN(C)CC6C5)c(O)c4c3C2=O)NC(=O)C(C)=CC=CC(C)C(O)C(C)C(O)C(C)C(OC(C)=O)C1C (centres unmarked) [Example 9, hydrazone of 3-formylrifamycin SV with 3-amino-6-methylperhydro-1H-pyrazino[1,2-a]pyrazine]
- Antituberculotic action, MIC (minimum inhibitory concentration) [2]: 0.1 µg/mL

Compound: CO[C@H]1/C=C/O[C@@]2(C)Oc3c(C)c(O)c4c(O)c(c(/C=N/N5CCN(C)CC5)c(O)c4c3C2=O)NC(=O)/C(C)=C\C=C\[C@H](C)[C@H](O)[C@@H](C)[C@@H](O)[C@@H](C)[C@H](OC(C)=O)[C@@H]1C [Rifampicin, hydrazone of 3-formylrifamycin SV with 1-amino-4-methylpiperazine, reference compound]
- Cmax (Pharmacokinetics in rats): 13900 ng/mL
- dwell time in the organism [3]: relatively short dwell time in the organism
- Cmax (Pharmacokinetics in mice; plasma): 24800 ng/mL
- antituberculotic activity (tuberculosis infections): excellent antituberculotic activity
- ED50 [1, 4]: 5.9 mg/kg
- MIC [2]: 0.03 µg/mL (≈ 0.0365 µM)
